Assay results from patent publication US8178506B2, “Oligomeric compounds and compositions for use in modulation of small non-coding RNAs” (Regulus Therapeutics Inc., priority 2003, dated 2012).
In the oligonucleotide strings, read from the 5' end, every base follows the letter of its sugar. An asterisk marks phosphorothioate; unmarked linkages are phosphodiester. Other units and linkages are bracketed, terminal groups are in braces. A string of capitals states the bases alone. e = 2'-O-(2-methoxyethyl) (MOE); [5mC] = 5-methylcytosine; d = 2'-deoxy (DNA)

System: HeLa cells
Assay: Cell cycle assay in HeLa cells
Assay type: cell-based, human
Conditions: for % cells aneuploid / % cells in cell cycle phase G1 / % cells in cell cycle phase G2/M / % cells in cell cycle phase S / % cells in cell cycle phase subG1 / % cells in cell cycle phase: G1 / % cells in cell cycle phase: G2/M / % cells in cell cycle phase: S / % cells in cell cycle phase: aneuploid / % cells in cell cycle phase: subG1: HeLa cells, 150 nM oligomeric compound; for % cells aneuploid / % cells in cell cycle phase G1 / % cells in cell cycle phase G2/M / % cells in cell cycle phase S / % cells in cell cycle phase subG1: relative to untreated control (UTC = 100); for % cells in cell cycle phase: G1 / % cells in cell cycle phase: G2/M / % cells in cell cycle phase: S / % cells in cell cycle phase: aneuploid / % cells in cell cycle phase: subG1: 48 hours after treatment, relative to untreated control (UTC=100); for phase of the cell cycle in which cells arrest or delay / chromosome missegregation (subG1 or aneuploid DNA content): HeLa, 150 nM; for chromosome missegregation (subG1 or aneuploid DNA content): 24-hour and 48-hour timepoints
Method: In some embodiments, HeLa cells were plated on collagen-coated 24-well plates at 50,000-60,000 cells per well, and allowed to attach to wells overnight. In some embodiments, HeLa cells were synchronized by double thymidine block (cells were washed three times with PBS, then grown in 10% FBS containing 2 mM thymidine; then 19 hours later, cells were washed three times in PBS, 10% FBS for 9 hours; cells were then incubated in 10% FBS, 2 mM thymidine for 15 hours; then washed three times with PBS, 10% FBS and samples were taken every two hours over a 16 hour period). A portion of each time sample was fixed with ethanol and treated with propidium iodide and subjected to FACs analysis for determination of the percentage of cells in each phase of the cell cycle. […] HeLa cells treated with 10 μM cisplatin or 100 ng/ml nocodazole were used as controls for G1-phase and late G2/M-phases, respectively. From the remaining portion of each of these time samples, total RNA was isolated and used to assess the expression of cell cycle marker mRNAs using the real-time RT-PCR methods and/or used to screen microarrays to assess the expression of miRNAs over the course of the cell cycle. It was observed that several miRNAs are expressed in a cell-cycle-dependent manner. Shown in Table 30 are the mRNA levels of the E2F1 transcription factor and topoisomerase 2A (Top2A), which vary over the course of the cell cycle and can be used for comparison to the experimental groups for the confirmation of cell cycle phase. Data are an average of three trials.
In some embodiments, HeLa cells were also treated with oligomeric compounds targeting miRNAs. […] The medium was removed from the plates. Each well was washed in 250 μl of PBS. […] Control cells received LIPOFECTIN™ only. […] After 24 hours (Table 31) or 48 hours (Table 32), cells were prepared for flow cytometry analysis to generate a cell cycle profile. The cell cycle profile was analyzed with the ModFit program (Verity Software House, Inc., Topsham Me.).
The random-mer ISIS 29848 (SEQ ID NO: 737) was used as a negative control, and ISIS 183891 (SEQ ID NO: 847), targeting kinesin-like 1/Eg5, was included as a positive control. Data are expressed as percentage of cells in each phase relative to the untreated control (UTC); values above 100 are considered to indicate a delay or arrest in that phase of the cell cycle. […] In some cases, the same oligomeric compound was tested in repeated experiments.
In accordance with the present invention, certain oligomeric compounds targeting miRNAs were selected for dose response studies. Using the cell cycle assay described above, the cell cycle profiles of HeLa or A549 cells treated with varying concentrations of oligomeric compounds of the present invention were assessed.
HeLa cells were treated with 25-, 50-, 100- or 150 nM of the oligomeric compounds ISIS
Numbers 327902 (SEQ ID NO: 320) and 328383 (SEQ ID NO: 492), both targeted against mir-192, and ISIS 327905 (SEQ ID NO: 323), targeting mir-205, and ISIS 328403 (SEQ ID NO: 512), targeting mir-106. Cells treated with increasing concentrations of oligomeric compounds were compared to untreated cells, to assess the dose-dependency of the observed delay or arrest. The random-mer ISIS 29848 was used as a negative control. Cells were prepared for flow cytometry 48-hours after oligonucleotide treatment, as described, supra.

Substance: 341788 (antisense AGCCAAGCTCAGACGGATCCGA; all 2'-MOE, all phosphorothioate, methylation of C not given here) [compound 341788]
- % cells aneuploid (24 hours): 114%
- % cells in cell cycle phase G1 (24 hours): 154%
- % cells in cell cycle phase G2/M (24 hours): 140%
- % cells in cell cycle phase S (24 hours): 54%
- % cells in cell cycle phase subG1 (24 hours): 303%
- % cells in cell cycle phase: G1: 76%
- % cells in cell cycle phase: G2/M: 163%
- % cells in cell cycle phase: S: 105%
- % cells in cell cycle phase: aneuploid: 116%
- % cells in cell cycle phase: subG1: 748%

Substance: 345373 (AGCCTATCCTGGATTACTTGAA; sugars from the 5' end e5 d10 e7, all phosphorothioate, methylation of C not given here) [compound 345373]
- % cells aneuploid (24 hours): 68%
- % cells in cell cycle phase G1 (24 hours): 66%
- % cells in cell cycle phase G2/M (24 hours): 176%
- % cells in cell cycle phase S (24 hours): 94%
- % cells in cell cycle phase subG1 (24 hours): 196%
- % cells in cell cycle phase: G1: 75%
- % cells in cell cycle phase: G2/M: 145%
- % cells in cell cycle phase: S: 132%
- % cells in cell cycle phase: aneuploid: 119%
- % cells in cell cycle phase: subG1: 116%

Substance: AGCCTATCCTGGATTACTTGAA (chemistry not fully specified) [ISIS 345373]
- phase of the cell cycle in which cells arrest or delay (24 hours): G2/M-phase
- phase of the cell cycle in which cells arrest or delay (48 hours): S-phase

Substance: CAGACTCCGGTGGAATGAAGGA (anti-miR; chemistry not fully specified) [ISIS 327905, uniform 2′-MOE PS; targets mir-205]
- phase of the cell cycle in which cells arrest or delay (48 hours): S-phase

Substance: GCCAAGGCGTGACATGATAT (chemistry not given here) [ISIS 25691, 5-10-5 2′-MOE gapmer PS targeted to Drosha RNase III mRNA]
- phase of the cell cycle in which cells arrest or delay (48 hours): increased percentage of cells in S-phase as well as a significant percentage of cells in the subG1 and aneuploid categories

Substance: GGTACAATCAACGGTCGATGGT (anti-miR; chemistry not fully specified) [ISIS 327934, uniform 2′-MOE PS; targets mir-213]
- phase of the cell cycle in which cells arrest or delay (48 hours): G2/M- and S-phases

Substance: ISIS 328403: 5-10-5 2′-MOE gapmer PS; SEQ ID NO 512; targets mir-106 pri-miRNA (eA*eG*eG*e[5mC]*e[5mC]*dT*dA*dT*dT*d[5mC]*d[5mC]*dT*dG*dT*dA*eG*e[5mC]*eA*eA*eA) [5-10-5 2′-MOE gapmer PS; targets mir-106 pri-miRNA]
- phase of the cell cycle in which cells arrest or delay (24 hours): G2/M-phase
- phase of the cell cycle in which cells arrest or delay (48 hours): S- and G2/M-phases

Substance: ISIS 328707: SEQ ID NO: 616, targeting miR-100-1 (eG*e[5mC]*eA*eA*e[5mC]*dA*dG*dG*d[5mC]*d[5mC]*dT*d[5mC]*dA*dA*dT*eA*eT*e[5mC]*eT*eT)
- phase of the cell cycle in which cells arrest or delay (both 24 and 48 hours): G2/M-phase

Substance: ISIS 328759: SEQ ID NO: 668, targeted to mir-216 (eG*eA*eG*eG*eG*dA*dT*dT*dG*dT*dA*dT*dG*dA*dA*e[5mC]*eA*eT*e[5mC]*eT)
- chromosome missegregation (subG1 or aneuploid DNA content): induce chromosome missegregation events
- phase of the cell cycle in which cells arrest or delay (48 hours): delay or arrest resulted in the G2/M-phase
- phase of the cell cycle in which cells arrest or delay (both 24 and 48 hours): G2/M-phase

Substance: ISIS 338678: SEQ ID NO: 505, targeted to the mir-205 pri-miRNA (CTGGTTGGGTATGAGACAGA; all 2'-MOE, all phosphorothioate, methylation of C not given here)
- phase of the cell cycle in which cells arrest or delay (time point not stated): G2/M-phase

Substance: ISIS 338797: SEQ ID NO: 624, targeted to hypothetical miRNA-144 (CTGGGGAGGGGGTTAGCGTC; all 2'-MOE, all phosphorothioate, methylation of C not given here)
- chromosome missegregation (subG1 or aneuploid DNA content): induce chromosome missegregation events
